Data reported in PubChem BioAssay (NCI).
Several values for one entry are separate records, joined by “and”; a condition that tells them apart may be missing. Equal entries are not always repeated.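 Cells were grown in 96-well plates and exposed to each compound for 48 hours at five concentrations; endpoints were interpolated linearly between bracketing concentrations, or set to the highest concentration if not reached. GI50 marks 50% less growth. The concentration for full growth arrest is given as TGI.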

Key:
Assay in all cases: NCI-60 cell line screen, 48 h
[1] = test system: 786-0 renal
[2] = test system: HS 578T breast
[3] = test system: IGROV1 ovarian
[4] = test system: M14 melanoma
[5] = test system: NCI-H460 lung
[6] = test system: SF-268 CNS
[7] = test system: SF-539 CNS
[8] = test system: SW-620 colon
[9] = test system: T-47D breast
[10] = test system: HOP-92 NSCLC

SMILES | GI50 [1] | TGI [1] [µM] | GI50 [2] | TGI [2] [µM] | GI50 [3] | TGI [3] | GI50 [4] | TGI [4] | GI50 [5] [µM] | TGI [5] [µM] | GI50 [6] | TGI [6] [µM] | GI50 [7] [µM] | TGI [7] [µM] | GI50 [8] [µM] | TGI [8] [µM] | GI50 [9] [µM] | TGI [9] [µM] | TGI [10] | GI50 [10] [µM]
C#CCOC(=O)/C=C/C(=O)Oc1ccc2c(C)cc(=O)oc2c1 | > 100 µM | > 100 | > 100 µM | > 100 | > 100 µM | > 100 µM | > 100 µM | > 100 µM | > 100 | > 100 | > 100 µM | > 100 | > 100 | > 100 | > 100 | > 100 | > 100 | > 100 |  | 
O=C(O)CCSC(=O)Nc1cccc2ccccc12 |  | > 100 |  |  |  | > 100 µM |  | > 100 µM |  | > 100 |  | > 100 |  | > 100 |  | > 100 |  |  | > 100 µM | 
C1C[OH+]CCNCC[OH+]CC[OH+]CCN1.N.[Cl-].[Pt+4] | > 100 µM | > 100 |  |  | 49.6 µM | > 100 µM | 54.2 µM | > 100 µM | 93 | > 100 | > 100 µM | > 100 | > 100 | > 100 | 67.7 | > 100 |  |  | > 100 µM | 35.8
COc1cc2c(c(OC)c1OC)-c1c(c3ccc([N+](=O)[O-])cc3c(=O)n1CCCBr)C2=O | 35.1 µM | > 100 | 67.9 µM | > 100 |  |  | 21 µM | 59.1 µM | 8.53 | > 100 | 4.83 µM | 45.8 | 4.5 | 17.9 | 18.2 | > 100 |  |  |  | 
CCc1[nH]nc(C(N)=O)c1N=NN(C)C |  | > 100 |  | > 100 |  | > 100 µM |  | > 100 µM |  |  |  | > 100 |  | > 100 |  | > 100 |  | > 100 | > 100 µM | 
O=C1c2cc3c(cc2-c2c1c1ccc(F)cc1c(=O)n2C[C@H](O)[C@H](O)[C@H](O)CO)OCO3 | 0.209 µM | 21.6 | 0.506 µM | 9.62 | 0.322 µM | > 100 µM | 0.18 µM | 4 µM |  |  | 0.0704 µM | 2.97 |  |  | 0.0967 | > 100 | 0.0419 | 0.391 | 0.896 µM | 0.243
COc1ccccc1NC(=O)C1=C(C)NC(C)=C(C(=O)Nc2ccccc2OC)C1c1ccccc1Cl |  | > 100 |  |  |  | > 100 µM |  | > 100 µM |  | > 100 |  | > 100 |  | > 100 |  | > 100 |  |  | > 100 µM | 
CCCCC(OC(=O)c1ccc(N)cc1)C(=O)Nc1nc(CC(=O)OCC)cs1 (stereo unspecified) | 53.6 µM | > 100 | 43.4 µM | > 100 | 51 µM | > 100 µM | 32.8 µM | > 100 µM |  |  | 43.5 µM | > 100 | 33.1 | > 100 | 48 | > 100 | 38.7 | > 100 | > 100 µM | 37.5
CC(=O)NCc1c(C(N)=O)ncn1Cc1ccccc1 |  | > 100 |  |  |  | > 100 µM |  | > 100 µM |  | > 100 |  |  |  | > 100 |  | > 100 |  |  | > 100 µM | 
O=[N+]([O-])c1cc(I)cc(/C=N/NS(=O)(=O)c2ccc(Cl)cc2)c1O |  | 42.9 |  |  |  | 45.1 µM |  | 58.3 µM |  | 37.4 |  | 77.4 |  | 51.5 |  | 82.4 |  |  | 37.6 µM | 
COc1ccc(-c2cc(=O)c3cc(C)c(C)c(C(=O)O)c3o2)cc1 |  | > 100 |  |  |  | > 100 µM |  |  |  | > 100 |  |  |  | > 100 |  | > 100 |  |  |  | 
CCOC(=O)CNC(=O)OCc1ccccc1 |  | > 100 |  |  |  | > 100 µM |  | > 100 µM |  | > 100 |  | > 100 |  | > 100 |  | > 100 |  |  | > 100 µM | 
OCCN(CCO)c1nc(N2CCCCC2)c2nc(N(CCO)CCO)nc(N3CCCCC3)c2n1 |  | > 100 |  | 79.6 |  | > 100 µM |  | > 100 µM |  | > 100 |  |  |  |  |  | > 100 |  | > 100 | 36.4 µM | 
O=C(C=Nc1ccccc1S)c1ccco1 | 16.6 µM | 31.8 |  |  |  | 22.2 µM | 15 µM | 28.7 µM | > 100 | > 100 |  | 40.7 |  | 27.3 |  | 32.8 |  |  |  | 
COc1cc(/C=C2\NC(=O)C3Cc4c(OC)c(C)c(OC)c(OC)c4C2N3C)c(OC)c(C)c1OC (stereo unspecified) |  | > 100 |  |  |  | > 100 µM |  | > 100 µM |  |  |  | > 100 |  | > 100 |  |  |  |  | > 100 µM | 
CCOC(=O)c1c(-c2ccc(OC)c(O)c2)c(C#N)c(=S)n(C2OC(COC(C)=O)C(OC(C)=O)C(OC(C)=O)C2OC(C)=O)c1-c1ccccc1 (stereo unspecified) | 35.1 µM and > 100 µM | > 100 | 38.8 µM and > 100 µM | > 100 | 23.6 µM and > 100 µM | 47.7 µM and > 100 µM | 18.9 µM and > 100 µM | 40.6 µM and > 100 µM |  | > 100 | 34 µM and > 100 µM | > 100 |  |  |  | > 100 |  |  | 87.9 µM and > 100 µM | 
CCOC(=O)Nc1ccc2c(c1)C(=O)N(CC)c1ccccc1O2 | 0.434 µM | > 100 | 0.117 µM | > 100 | 0.265 µM | > 100 µM | 0.0617 µM | > 100 µM | 0.116 | > 100 | 0.26 µM | > 100 | 0.0942 | 0.643 | 0.0632 | > 100 |  |  | > 100 µM | 1.5
CC(=O)OC1=C2CC[C@@H]3C(CC[C@@]4(C)C3CC[C@@H]4OC(C)=O)[C@@]2(C)CC(C#N)C1=O (stereo partly specified) |  | > 100 |  |  |  | 61.4 µM |  | > 100 µM |  | 74.4 |  | > 100 |  | > 100 |  | > 100 |  |  | 54.9 µM | 
O=C(CCCC(=O)N/N=C/c1cc(Cl)ccc1O)N/N=C\c1cc(Cl)ccc1O | 3.59 µM | > 100 | > 100 µM | > 100 | 4.21 µM | > 100 µM | 3.21 µM | > 100 µM | 2.94 | > 100 | 2.5 µM | > 100 | 2.66 | 33.5 | 3.69 | > 100 | 3.23 | > 100 |  | 
